Assays:
[1] = target: cAMP-dependent protein kinase catalytic subunit alpha (Bos taurus, UniProt P00517); experiment: Kinase Inhibition Assay; conditions: 25 °C
Description: (§1) In vitro kinase assay using purified enzyme, was incubated at room temperature with substrate, and test compounds in the presence of ATP/[gamma-33P]ATP. 33P incorporation was measured with a Top Count (Packard). IC50 is the inhibitor concentration which inhibits 50% of kinase activity that catalyzes the transfer of the terminal phosphate from 33P labeled ATP to the substrate.

[2] = target: Calcium/calmodulin-dependent protein kinase type II subunit alpha (Rattus norvegicus, UniProt P11275); experiment: Kinase Inhibition Assay; conditions: 25 °C
Sequence of Calcium/calmodulin-dependent protein kinase type II subunit alpha (P11275 whole entry): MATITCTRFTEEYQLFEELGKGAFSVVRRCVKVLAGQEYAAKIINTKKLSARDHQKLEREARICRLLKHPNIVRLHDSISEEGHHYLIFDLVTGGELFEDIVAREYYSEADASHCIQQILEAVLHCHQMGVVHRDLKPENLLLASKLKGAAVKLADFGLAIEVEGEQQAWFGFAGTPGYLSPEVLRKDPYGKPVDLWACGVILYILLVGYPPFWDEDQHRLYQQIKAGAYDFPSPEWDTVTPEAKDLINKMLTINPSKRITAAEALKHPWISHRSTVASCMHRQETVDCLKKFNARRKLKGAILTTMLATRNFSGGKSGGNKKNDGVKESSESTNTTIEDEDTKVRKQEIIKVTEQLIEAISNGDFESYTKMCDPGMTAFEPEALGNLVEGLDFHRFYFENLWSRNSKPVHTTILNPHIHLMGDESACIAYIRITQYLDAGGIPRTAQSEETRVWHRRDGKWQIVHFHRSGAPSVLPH
Description: as §1

IC50 [1] [µM] | IC50 [2] [µM] | EC50 [2] [µM] | Structure (SMILES)
> 20 | – | – | O=C1NC(=O)c2c1c1c3ccccc3[nH]c1c1[nH]c3c(Br)cccc3c21 [5-bromo-3,13,23-triazahexacyclo[14.7.0.0^{2,10}.0^{4,9}.0^{11,15}.0^{17,22}]tricosa-1(16),2(10),4(9),5,7,11(15),17(22),18,20-nonaene-12,14-dione]
> 2 | > 2 | – | O=C1NC(=O)c2c1c1c3ccccc3[nH]c1c1[nH]c3cc(C(F)(F)F)ccc3c21 [6-(trifluoromethyl)-3,13,23-triazahexacyclo[14.7.0.0^{2,10}.0^{4,9}.0^{11,15}.0^{17,22}]tricosa-1(16),2(10),4(9),5,7,11(15),17(22),18,20-nonaene-12,14-dione]
> 20 | – | 0.07 | O=C1NC(=O)c2c1c1c3ccccc3[nH]c1c1[nH]c3cc(Br)ccc3c21 [6-bromo-3,13,23-triazahexacyclo[14.7.0.0^{2,10}.0^{4,9}.0^{11,15}.0^{17,22}]tricosa-1(16),2(10),4(9),5,7,11(15),17(22),18,20-nonaene-12,14-dione]
> 2 | > 2 | – | COc1ccc2c(c1)[nH]c1c3[nH]c4cc(Br)ccc4c3c3c(c21)C(=O)NC3=O [6-bromo-20-methoxy-3,13,23-triazahexacyclo[14.7.0.0^{2,10}.0^{4,9}.0^{11,15}.0^{17,22}]tricosa-1(16),2(10),4(9),5,7,11(15),17(22),18,20-nonaene-12,14-dione]
> 2 | – | – | O=C1NC(=O)c2c1c1c3ccccc3[nH]c1c1[nH]c3cc(Cl)ccc3c21 [6-chloro-3,13,23-triazahexacyclo[14.7.0.0^{2,10}.0^{4,9}.0^{11,15}.0^{17,22}]tricosa-1(16),2(10),4(9),5,7,11(15),17(22),18,20-nonaene-12,14-dione]
> 2 | – | 0.04 | O=C1NC(=O)c2c1c1c3ccccc3[nH]c1c1[nH]c3cc(F)ccc3c21 [6-fluoro-3,13,23-triazahexacyclo[14.7.0.0^{2,10}.0^{4,9}.0^{11,15}.0^{17,22}]tricosa-1(16),2(10),4(9),5,7,11(15),17(22),18,20-nonaene-12,14-dione]
> 2 | – | – | COc1ccc2c(c1)[nH]c1c3[nH]c4ccccc4c3c3c(c21)C(=O)NC3=O [6-methoxy-3,13,23-triazahexacyclo[14.7.0.0^{2,10}.0^{4,9}.0^{11,15}.0^{17,22}]tricosa-1(16),2(10),4(9),5,7,11(15),17(22),18,20-nonaene-12,14-dione]
> 2 | – | – | Cc1ccc2c(c1)[nH]c1c3[nH]c4ccccc4c3c3c(c21)C(=O)NC3=O [6-methyl-3,13,23-triazahexacyclo[14.7.0.0^{2,10}.0^{4,9}.0^{11,15}.0^{17,22}]tricosa-1(16),2(10),4(9),5,7,11(15),17(22),18,20-nonaene-12,14-dione]
> 20 | < 1.25 | 0.07 | O=C1NC(=O)c2c1c1c3ccccc3[nH]c1c1[nH]c3ccc(Br)cc3c21 [7-bromo-3,13,23-triazahexacyclo[14.7.0.0^{2,10}.0^{4,9}.0^{11,15}.0^{17,22}]tricosa-1(16),2(10),4(9),5,7,11(15),17(22),18,20-nonaene-12,14-dione]
> 2 | – | 0.08 | Cn1c2ccccc2c2c3c(c4c5ccc(Br)cc5[nH]c4c21)C(=O)NC3=O [indolocarbazole deriv. 4(f)]
> 2 | > 2 | – | Cn1c2ccccc2c2c3c(c4c5ccc(F)cc5[nH]c4c21)C(=O)NC3=O [indolocarbazole deriv. 4(h)]

Structure (SMILES) | IC50 [1] [µM] | IC50 [2] [µM] | EC50 [2] [µM]
O=C1NC(=O)c2c1c1c3ccccc3[nH]c1c1[nH]c3ccccc3c21 [6,7,12,13-Tetrahydro-5,7-dioxo-5H-indolo[2,3-a]pyrrolo[3,4-c]carbazole] | > 2 | – | –
